In patent US10632127B2, “Targeted notch pathway inhibitors” (Hoffmann-La Roche Inc., priority 2015, dated 2020):
Read-outs that look alike come from different tables or passages of the source.

What was measured:
[1] = Distribution in plasma, liver and kidney in the aristolochic acid mouse model (repeated i.p.); format: in vivo; settings: for concentration at 13 h: male, C57BL/6, mouse, ip, 10 mg/kg
Protocol: (§1) For PK evaluation, the compounds were administered i.p to male C57BL/6 mice in suspension (gelatine/saline 7.5%/0.62% in water) using an administration volume of 4 mL/kg. Blood samples were collected in tubes containing EDTA, plasma was separated by centrifugation and stored at −80° C. Liver and kidney samples (˜100 mg aliquots) were homogenized in three volumes of water using Precellys tissue homogenization tubes (precellys.com). 25 μL of each tissue homogenate was further diluted with 25 μL blank plasma to produce the final tissue homogenate for extraction. All samples were analyzed using protein precipitation followed by LC-MS/MS analysis. Briefly, 50 μL plasma or final tissue homogenate were mixed with 50 μL 0.5M HClO4/acetonitrile 9/1 (containing 200 ng/mL internal standard bosentan). Samples were stirred and 300 μL water was added followed by centrifugation at 5600 rpm (4° C., 10 min). 10 μL supernatant was analyzed by LC/MS analysis. Calibration standards in plasma were prepared the same way. The LC column and conditions used were: Phenomenex, Polar RP, 4 μm, 50×2.1 mm at 0.4 mL/min flow rate with a 3 min gradient from 95% solvent A to 95% solvent B (Solvent A: Water/ACN/HCOOH, 90:10:0.1+10 mM NH4 formate; Solvent B: Water/ACN/HCOOH, 10:90:0.1+10 mM NH4 formate). Mass spectrometric conditions were: Thermo TSQ Vantage with positive heated electrospray ionization in MS/MS mode. Compounds mass transitions monitored were m/z 320.7 to 119.9. PK parameters for all studies were calculated using Phoenix WinNonlin Software.
All experiments with animals were conducted in accordance with federal and local regulation at the respective study location. Kidney injury was induced by intraperitoneal (i.p). injection of aristolochic acid (AA, Sigma-Aldrich, 1×5 mg/kg) in 10 weeks old BALB/c male mice. The γ-secretase inhibitors prodrugs were diluted in NaCl 0.9% and administered i.p., starting one day before the injection of AA (day −1) and then twice daily until day 6 evening (n=5 mice/experimental group). […] The kidneys were cut in four fragments. One fragment was immediately frozen in liquid nitrogen, one fragment was included in OCT (Tissue-Tek, VWR International, Switzerland) and frozen, one fragment was frozen at −80° C. and one fragment was fixed in 4% paraformaldehyde and included in paraffin.
To investigate potential nephroprotective effects of Notch blockade using γ-secretase inhibition and to evaluate the effects of our enzyme-targeted prodrug strategy, we used the in vivo AA mouse model of acute renal tubular damage. […]
Plasma and tissue concentrations of administered compound (Table 6A-C) and formed free γ-secretase inhibitor (8) (Table 6A) or amine-SecrI (11a) (Table 6B-C) were determined following 8-day repeated i.p. administration at 10 mg/kg b.i.d. (Table 6A) or 30 mg/kg b.i.d. […] Numbers in parentheses represent relative amounts with the exposure of 11a in kidney arbitrarily set at each time point to 100%. […] BQL=below quantifiable limit.

[2] = Pharmacokinetic assessment in C57BL/6 healthy wild-type mice (i.p.); format: in vivo, mouse; settings: C57BL/6 mice; for concentration at 0.5 h / concentration at 4 h / concentration at 7 h: male, mouse, ip
Protocol: as §1
We next determined the stability, tissue distribution and cleavage rate in plasma, liver and kidney of the designed prodrugs in non-diseased mice. In the in vivo screen, the kinetics and distribution of γ-secretase inhibitor prodrugs Ac-γ-Glu-SecrI (13a), Ac-α-Glu-SecrI (15a) and H-α-Glu-SecrI (15b) were compared with the active γ-secretase inhibitor amine-SecrI (11a). After i.p administration (10 mg/kg) in C57BL/6 mice, the disappearance of the prodrugs and the formation of the active amine-SecrI (11a) were compared in plasma, liver and kidney (Table 5). First, we determined the pharmacokinetics (PK) behavior of amine-SecrI (11a) following i.p. administration (Table 5A). […] Liver and kidney exposure were much higher, with approximately 4.5-fold higher exposure in liver compared to kidney. […] The selectivity towards kidney appeared to decrease over time, probably due to fast clearance and re-equilibration of the amine-SecrI (11a). However, the high selectivity at earlier time-points assured that the total exposure over time was much higher in the kidney compared to the liver.

[3] = Pharmacokinetic assessment in male Wistar rats (i.v.); format: in vivo, rat; settings: 13a 1.6 mg/kg i.v.
Protocol: as §1
We next determined the stability, tissue distribution and cleavage rate in plasma, liver and kidney of the designed prodrugs in male Wistar rats. In the in vivo screen, the kinetics and distribution of the prodrugs Ac-γ-Glu-SecrI (13a) and Ac-γ-Glu-O-SecrI (13c) were compared with the active γ-secretase inhibitor SecrI (8). After i.v. administration in male Wistar rats, the disappearance of the prodrugs and the formation of the active amine-SecrI (11a), amine-O-SecrI (11b) and SecrI (8) were compared in plasma, liver and kidney (Table 7A-C). First, we determined the pharmacokinetics (PK) behavior of SecrI (8) following i.v. administration (Table 7A). […] Liver and kidney exposure were much higher, with same exposure in liver and kidney. […] The selectivity towards kidney stayed constant over time. The carbonate analogue Ac-γ-Glu-O-SecrI (13c) prodrug was converted to a lower extent than the Ac-γ-Glu-SecrI (13a) to amine-O-SecrI (11b) but more to the linker free γ-secretase inhibitor 8 (Table 7C).
Plasma and tissue concentrations of administered compound (A-C) and formed amine-SecrI (11a), amine-O-SecrI (11b) or SecrI (8) (B-C) were determined following i.v. administration in rats (no standard deviation given due to sparse sampling; n≤3 rats per time point). Numbers in parentheses represent relative amounts with the exposure of kidney arbitrarily set at each time point to 100%. […] BQL=below quantifiable limit.

[4] = AA-exposed mice, 11a 10 mg/kg b.i.d. i.p. repeated, 13 h
[5] = mice, 13a 30 mg/kg b.i.d. i.p. repeated, without AA (Table 6B), 13 h

## C[C@H]1Oc2ccc(F)cc2N(CCOC(=O)NCCN)C(=O)[C@H]1NC(=O)[C@@](C)(O)C(=O)NCC(F)(F)C(F)(F)F.Cl [Compound 11a, 2-((2R,3S)-7-Fluoro-3-((S)-2-hydroxy-2-methyl-3-oxo-3-(2,2,3,3,3-pentafluoropropylamino)propanamido)-2-methyl-4-oxo-3,4-dihydrobenzo[b][1,4]oxazepin-5(2H)-yl)ethyl 2-aminoethylcarbamate hydrochloride]
[1]; 13a 30 mg/kg b.i.d., 12 h post administration, compared with 11a group
  exposure of amine-SecrI (11a) in the Ac-γ-Glu-SecrI (13a) group, in words: comparatively lower exposure
[1]; AA model, 11a 10 mg/kg b.i.d., 12 h post administration
  exposure of kidney and liver with amine-SecrI (11a), in words: high exposure of kidney and liver
[1]; [4]
  11a in kidney, relative amount (arbitrarily set to 100%): (100) %
  11a in liver, relative amount (11a in kidney = 100%): 68%
[1]; AA-exposed mice, 13a 30 mg/kg b.i.d. i.p. repeated, 13 h
  Plasma concentration of formed 11a: BQL
[1]; kidney, AA-exposed mice, 11a 10 mg/kg b.i.d. i.p. repeated, 13 h, read-out: Kidney concentration of 11a
  concentration at 13 h: 1830 ng/g
[1]; liver, AA-exposed mice, 11a 10 mg/kg b.i.d. i.p. repeated, 13 h, read-out: Liver concentration of 11a
  concentration at 13 h: 1250 ng/g
[1]; plasma, AA-exposed mice, 11a 10 mg/kg b.i.d. i.p. repeated, 13 h, read-out: Plasma concentration of 11a
  concentration at 13 h: 7.2 ng/mL
[1]; [5]
  Liver concentration of formed 11a: BQL
  Plasma concentration of formed 11a: BQL
[2]; 10 mg/kg i.p.
  hydrolysis of the linker in 11a to the free antagonist 8: never observed significant amounts
  plasma exposure, in words: very low plasma exposure
[2]; 11a 10 mg/kg i.p.
  exposure in liver compared to kidney: approximately 4.5 fold
[2]; 11a 10 mg/kg i.p., 0.5 h
  11a in kidney, relative amount (arbitrarily set to 100%): (100) %
  11a in liver, relative amount (11a in kidney = 100%): (450) %
[2]; 11a 10 mg/kg i.p., 4 h
  11a in kidney, relative amount (arbitrarily set to 100%): (100) %
  11a in liver, relative amount (11a in kidney = 100%): (250) %
[2]; 11a 10 mg/kg i.p., 7 h
  11a in kidney, relative amount (arbitrarily set to 100%): (100) %
  11a in liver, relative amount (11a in kidney = 100%): (290) %
[2]; after 13a 10 mg/kg i.p.
  formed 11a in plasma at all time-points: below the limit of quantitation
[2]; after 13a 10 mg/kg i.p., 0.5 h
  Plasma concentration of formed 11a: BQL
[2]; after 13a 10 mg/kg i.p., 4 h
  Plasma concentration of formed 11a: BQL
[2]; after 13a 10 mg/kg i.p., 7 h
  Plasma concentration of formed 11a: BQL
[2]; after 15b 10 mg/kg i.p., 7 h
  Plasma concentration of formed 11a: BQL
[2]; kidney, 10 mg/kg i.p., 0.5 h, read-out: Kidney concentration of administered compound
  concentration at 0.5 h: 15500 ng/g
[2]; kidney, 10 mg/kg i.p., 4 h, read-out: Kidney concentration of administered compound
  concentration at 4 h: 1200 ng/g
[2]; kidney, 10 mg/kg i.p., 7 h, read-out: Kidney concentration of administered compound
  concentration at 7 h: 420 ng/g
[2]; liver, 10 mg/kg i.p., 0.5 h, read-out: Liver concentration of administered compound
  concentration at 0.5 h: 70000 ng/g
[2]; liver, 10 mg/kg i.p., 4 h, read-out: Liver concentration of administered compound
  concentration at 4 h: 3000 ng/g
[2]; liver, 10 mg/kg i.p., 7 h, read-out: Liver concentration of administered compound
  concentration at 7 h: 1200 ng/g
[2]; plasma, 10 mg/kg i.p., 0.5 h, read-out: Plasma concentration of administered compound
  concentration at 0.5 h: 97.8 ng/mL
[2]; plasma, 10 mg/kg i.p., 4 h, read-out: Plasma concentration of administered compound
  concentration at 4 h: 1.32 ng/mL
[2]; plasma, 10 mg/kg i.p., 7 h, read-out: Plasma concentration of administered compound
  concentration at 7 h: 2.08 ng/mL
[3]; 0.25 h
  Plasma concentration of formed 11a: BQL
[3]; 0.5 h
  Plasma concentration of formed 11a: BQL
[3]; 4 h
  Plasma concentration of formed 11a: BQL
[3]; 7 h
  Liver concentration of formed 11a: BQL
  Plasma concentration of formed 11a: BQL
